# Reference: ChEMBL document CHEMBL5046253, “Synthesis and bioevaluation of diaryl urea derivatives as potential antitumor agents for the treatment of human colorectal cancer” (Eur J Med Chem, 2022)
# Calls of active or inactive are those of the source. No cut-off for these calls is given here.
# Key:
# HCT-116 [1] = experiment: Inhibition of AKT phosphorylation at S473 residue in human HCT-116 cells at 10 uM after 24 hrs by Western blot analysis; assay type: cell-based
# [2] = Metabolic stability in Sprague-Dawley rat liver microsome; assay type: ADME; details: microsomes
# [3] = AUC (0 to 72 hrs) in Sprague-Dawley rat at 20 mg/kg, iv by LC-MS/MS analysis; assay type: ADME, organism-based; design: time < 72 hr, route intravenous, dose 20 mg/kg; details: in vivo
# [4] = AUC (0 to infinity) in Sprague-Dawley rat at 20 mg/kg, iv by LC-MS/MS analysis; assay type: ADME, organism-based; design: route intravenous, time infinity, dose 20 mg/kg; details: in vivo
# [5] = MRT in Sprague-Dawley rat at 20 mg/kg, iv by LC-MS/MS analysis; assay type: ADME, organism-based; details: in vivo
# [6] = Half life in Sprague-Dawley rat at 20 mg/kg, iv by LC-MS/MS analysis; assay type: ADME, organism-based; details: in vivo
# [7] = Tmax in Sprague-Dawley rat at 20 mg/kg, iv by LC-MS/MS analysis; assay type: ADME, organism-based; details: in vivo
# [8] = Volume of distribution at steady state in Sprague-Dawley rat at 20 mg/kg, iv by LC-MS/MS analysis; assay type: ADME, organism-based; details: in vivo
# Cytochrome P450 1A2 = Cytochrome P450 1A2 (Homo sapiens, UniProt P05177); experiment: Inhibition of CYP1A2 (unknown origin); assay type: ADME
# Cytochrome P450 1A2, sequence (P05177 whole entry): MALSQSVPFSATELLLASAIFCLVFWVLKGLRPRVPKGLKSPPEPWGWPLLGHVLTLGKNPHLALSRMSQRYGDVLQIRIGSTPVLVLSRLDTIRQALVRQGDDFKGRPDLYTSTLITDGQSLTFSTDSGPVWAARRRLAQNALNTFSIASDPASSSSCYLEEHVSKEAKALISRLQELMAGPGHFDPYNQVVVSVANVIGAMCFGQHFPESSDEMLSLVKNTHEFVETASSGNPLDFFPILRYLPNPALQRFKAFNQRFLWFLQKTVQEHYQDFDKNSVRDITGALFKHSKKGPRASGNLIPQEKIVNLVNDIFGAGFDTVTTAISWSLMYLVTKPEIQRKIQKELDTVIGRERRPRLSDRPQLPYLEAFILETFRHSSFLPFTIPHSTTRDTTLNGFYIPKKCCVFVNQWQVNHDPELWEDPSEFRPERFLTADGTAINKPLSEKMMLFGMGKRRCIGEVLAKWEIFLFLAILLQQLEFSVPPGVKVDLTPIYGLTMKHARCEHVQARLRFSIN
# Cytochrome P450 2C9 = Cytochrome P450 2C9 (Homo sapiens, UniProt P11712); experiment: Inhibition of CYP2C9 (unknown origin); assay type: ADME
# Cytochrome P450 2C19 = Cytochrome P450 2C19 (Homo sapiens, UniProt P33261); experiment: Inhibition of CYP2C19 (unknown origin); assay type: ADME
# Cytochrome P450 2C19, sequence (P33261 whole entry): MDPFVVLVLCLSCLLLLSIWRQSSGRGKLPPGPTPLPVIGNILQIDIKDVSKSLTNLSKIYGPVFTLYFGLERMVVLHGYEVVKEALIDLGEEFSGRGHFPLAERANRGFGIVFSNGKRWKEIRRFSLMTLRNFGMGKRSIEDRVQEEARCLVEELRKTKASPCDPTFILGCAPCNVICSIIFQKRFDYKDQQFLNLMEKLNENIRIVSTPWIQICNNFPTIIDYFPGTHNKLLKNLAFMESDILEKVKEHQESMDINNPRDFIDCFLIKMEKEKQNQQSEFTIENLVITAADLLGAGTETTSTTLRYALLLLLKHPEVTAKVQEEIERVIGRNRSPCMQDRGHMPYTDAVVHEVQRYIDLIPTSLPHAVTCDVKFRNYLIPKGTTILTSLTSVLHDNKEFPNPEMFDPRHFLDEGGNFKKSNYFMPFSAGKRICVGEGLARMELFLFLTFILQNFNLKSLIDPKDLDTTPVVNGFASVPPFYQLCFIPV
# Cytochrome P450 2D6 = Cytochrome P450 2D6 (Homo sapiens, UniProt P10635); experiment: Inhibition of CYP2D6 (unknown origin); assay type: ADME
# Cytochrome P450 2D6, sequence (P10635 whole entry): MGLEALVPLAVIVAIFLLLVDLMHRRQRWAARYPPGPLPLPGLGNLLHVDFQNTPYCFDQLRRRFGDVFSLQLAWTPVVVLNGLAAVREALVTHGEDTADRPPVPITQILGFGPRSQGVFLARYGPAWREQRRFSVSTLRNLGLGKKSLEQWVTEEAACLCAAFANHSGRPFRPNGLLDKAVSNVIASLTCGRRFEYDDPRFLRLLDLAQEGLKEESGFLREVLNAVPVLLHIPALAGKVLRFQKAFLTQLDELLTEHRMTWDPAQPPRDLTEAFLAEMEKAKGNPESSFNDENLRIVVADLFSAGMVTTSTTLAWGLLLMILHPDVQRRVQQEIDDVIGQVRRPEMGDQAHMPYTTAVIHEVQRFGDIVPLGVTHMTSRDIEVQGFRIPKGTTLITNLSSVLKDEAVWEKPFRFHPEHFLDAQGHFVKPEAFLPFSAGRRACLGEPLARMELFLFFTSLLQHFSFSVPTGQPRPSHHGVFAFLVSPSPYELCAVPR
# HCT-116 [9] = experiment: Antitumor activity against human HCT-116 cells xenografted in BALB/c nude mouse assessed as tumor size at 20 mg/kg, iv administered for 19 days (reference value: 1264.1+/-95.7 mm3); assay type: functional; details: time 19 day
# HCT-116 [10] = experiment: Antitumor activity against human HCT-116 cells xenografted in BALB/c nude mouse assessed as tumor growth inhibition at 20 mg/kg, iv administered for 19 days; assay type: functional; details: HCT-116, iv, 456 h, time 19 day, read-out: TGI
# Spleen = experiment: Toxicity in BALB/c mouse assessed as effect on spleen by H and E staining based histological analysis; assay type: tissue-based; details: in vivo
# Heart = experiment: Toxicity in BALB/c mouse assessed as effect on heart by H and E staining based histological analysis; assay type: tissue-based; details: in vivo
# Lung = experiment: Toxicity in BALB/c mouse assessed as effect on lungs by H and E staining based histological analysis; assay type: tissue-based; details: in vivo
# Kidney = experiment: Toxicity in BALB/c mouse assessed as effect on kidney by H and E staining based histological analysis; assay type: tissue-based; details: in vivo
# Liver = experiment: Toxicity in BALB/c mouse assessed as effect on liver by H and E staining based histological analysis; assay type: tissue-based; details: in vivo
# Mus musculus = experiment: Hyperglycemic activity in ICR mouse model assessed as effect on blood glucose level at 20 mg/kg, iv by glucometer; assay type: toxicity, organism-based; details: in vivo
# [11] = biological target: Phosphatidylinositol 4,5-bisphosphate 3-kinase catalytic subunit alpha isoform (Homo sapiens, UniProt P42336); experiment: Inhibition of PI3Kalpha (unknown origin) using PIP2 as substrate in presence of ATP incubated for 60 mins by ADP-glo based luminescence assay
# Phosphatidylinositol 4,5-bisphosphate 3-kinase catalytic subunit alpha isoform, sequence (P42336 whole entry, canonical isoform): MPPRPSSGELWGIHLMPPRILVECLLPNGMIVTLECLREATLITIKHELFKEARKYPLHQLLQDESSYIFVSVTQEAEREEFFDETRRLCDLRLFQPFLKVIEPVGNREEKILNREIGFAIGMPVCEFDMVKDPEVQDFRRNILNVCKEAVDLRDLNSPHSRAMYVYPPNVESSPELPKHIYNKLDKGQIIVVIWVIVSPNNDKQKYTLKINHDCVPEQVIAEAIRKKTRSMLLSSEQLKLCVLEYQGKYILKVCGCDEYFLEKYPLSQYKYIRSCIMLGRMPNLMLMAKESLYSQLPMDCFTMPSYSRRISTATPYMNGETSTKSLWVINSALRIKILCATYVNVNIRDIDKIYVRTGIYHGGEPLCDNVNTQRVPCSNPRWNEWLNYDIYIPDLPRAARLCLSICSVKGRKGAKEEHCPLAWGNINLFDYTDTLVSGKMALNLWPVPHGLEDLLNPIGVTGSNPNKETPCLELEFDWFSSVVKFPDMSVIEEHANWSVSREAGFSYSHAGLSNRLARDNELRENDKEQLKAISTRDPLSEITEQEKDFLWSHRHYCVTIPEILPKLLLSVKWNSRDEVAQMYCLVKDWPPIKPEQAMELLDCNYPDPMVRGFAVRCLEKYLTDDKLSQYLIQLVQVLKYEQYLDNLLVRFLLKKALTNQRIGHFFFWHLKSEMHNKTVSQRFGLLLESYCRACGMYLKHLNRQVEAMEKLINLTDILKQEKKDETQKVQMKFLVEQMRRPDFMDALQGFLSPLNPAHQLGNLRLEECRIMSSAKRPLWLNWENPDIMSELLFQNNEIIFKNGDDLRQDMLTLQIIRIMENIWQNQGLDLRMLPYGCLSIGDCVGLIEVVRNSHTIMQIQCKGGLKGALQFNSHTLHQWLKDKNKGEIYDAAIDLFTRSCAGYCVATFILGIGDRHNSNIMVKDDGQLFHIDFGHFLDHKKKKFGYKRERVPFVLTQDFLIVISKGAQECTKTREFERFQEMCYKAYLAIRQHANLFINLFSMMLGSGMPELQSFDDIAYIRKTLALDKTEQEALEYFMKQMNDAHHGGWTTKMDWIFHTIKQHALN
# [12] = biological target: Serine/threonine-protein kinase mTOR (Homo sapiens, UniProt P42345); experiment: Inhibition of mTOR (unknown origin) using U-Light-4E-BP1 peptide as a substrate in presence of ATP incubated for 45 mins by Lance ultra assay
# [13] = biological target: Phosphatidylinositol 4,5-bisphosphate 3-kinase catalytic subunit beta isoform (Homo sapiens, UniProt P42338); experiment: Inhibition of PI3Kbeta (unknown origin) using PIP2 as substrate in presence of ATP incubated for 60 mins by ADP-glo based luminescence assay
# Phosphatidylinositol 4,5-bisphosphate 3-kinase catalytic subunit beta isoform, sequence (P42338 whole entry, canonical isoform): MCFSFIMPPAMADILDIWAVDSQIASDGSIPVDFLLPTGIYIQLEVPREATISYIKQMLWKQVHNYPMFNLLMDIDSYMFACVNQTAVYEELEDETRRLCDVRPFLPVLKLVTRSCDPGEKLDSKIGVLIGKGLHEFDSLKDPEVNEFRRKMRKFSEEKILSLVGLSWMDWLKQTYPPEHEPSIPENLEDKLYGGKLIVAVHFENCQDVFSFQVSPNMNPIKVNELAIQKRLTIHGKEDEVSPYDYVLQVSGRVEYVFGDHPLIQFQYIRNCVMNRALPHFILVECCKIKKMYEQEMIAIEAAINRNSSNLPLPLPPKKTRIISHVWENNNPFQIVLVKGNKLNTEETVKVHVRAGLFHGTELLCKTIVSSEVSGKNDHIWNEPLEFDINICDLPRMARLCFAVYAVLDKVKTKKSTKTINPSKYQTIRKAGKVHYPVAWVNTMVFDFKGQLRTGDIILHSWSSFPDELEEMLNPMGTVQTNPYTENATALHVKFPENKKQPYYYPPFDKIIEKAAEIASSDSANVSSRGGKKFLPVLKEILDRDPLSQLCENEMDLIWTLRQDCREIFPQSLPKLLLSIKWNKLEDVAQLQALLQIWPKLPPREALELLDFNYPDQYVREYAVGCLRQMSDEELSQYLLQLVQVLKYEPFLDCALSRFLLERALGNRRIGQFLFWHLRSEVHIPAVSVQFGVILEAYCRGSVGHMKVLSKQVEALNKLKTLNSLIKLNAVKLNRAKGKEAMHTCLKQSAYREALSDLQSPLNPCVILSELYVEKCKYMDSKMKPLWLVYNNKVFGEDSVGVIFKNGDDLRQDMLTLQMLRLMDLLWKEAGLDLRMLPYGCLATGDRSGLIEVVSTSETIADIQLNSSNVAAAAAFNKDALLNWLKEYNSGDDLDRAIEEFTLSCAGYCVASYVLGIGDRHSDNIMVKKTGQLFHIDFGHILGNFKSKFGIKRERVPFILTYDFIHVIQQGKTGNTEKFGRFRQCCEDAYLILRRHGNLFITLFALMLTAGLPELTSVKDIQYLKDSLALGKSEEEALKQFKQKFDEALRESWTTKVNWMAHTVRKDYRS
# [14] = biological target: Phosphatidylinositol 4,5-bisphosphate 3-kinase catalytic subunit gamma isoform (Homo sapiens, UniProt P48736); experiment: Inhibition of PI3Kgamma (unknown origin) using PIP2 as substrate in presence of ATP incubated for 60 mins by ADP-glo based luminescence assay
# Phosphatidylinositol 4,5-bisphosphate 3-kinase catalytic subunit gamma isoform, sequence (P48736 whole entry, canonical isoform): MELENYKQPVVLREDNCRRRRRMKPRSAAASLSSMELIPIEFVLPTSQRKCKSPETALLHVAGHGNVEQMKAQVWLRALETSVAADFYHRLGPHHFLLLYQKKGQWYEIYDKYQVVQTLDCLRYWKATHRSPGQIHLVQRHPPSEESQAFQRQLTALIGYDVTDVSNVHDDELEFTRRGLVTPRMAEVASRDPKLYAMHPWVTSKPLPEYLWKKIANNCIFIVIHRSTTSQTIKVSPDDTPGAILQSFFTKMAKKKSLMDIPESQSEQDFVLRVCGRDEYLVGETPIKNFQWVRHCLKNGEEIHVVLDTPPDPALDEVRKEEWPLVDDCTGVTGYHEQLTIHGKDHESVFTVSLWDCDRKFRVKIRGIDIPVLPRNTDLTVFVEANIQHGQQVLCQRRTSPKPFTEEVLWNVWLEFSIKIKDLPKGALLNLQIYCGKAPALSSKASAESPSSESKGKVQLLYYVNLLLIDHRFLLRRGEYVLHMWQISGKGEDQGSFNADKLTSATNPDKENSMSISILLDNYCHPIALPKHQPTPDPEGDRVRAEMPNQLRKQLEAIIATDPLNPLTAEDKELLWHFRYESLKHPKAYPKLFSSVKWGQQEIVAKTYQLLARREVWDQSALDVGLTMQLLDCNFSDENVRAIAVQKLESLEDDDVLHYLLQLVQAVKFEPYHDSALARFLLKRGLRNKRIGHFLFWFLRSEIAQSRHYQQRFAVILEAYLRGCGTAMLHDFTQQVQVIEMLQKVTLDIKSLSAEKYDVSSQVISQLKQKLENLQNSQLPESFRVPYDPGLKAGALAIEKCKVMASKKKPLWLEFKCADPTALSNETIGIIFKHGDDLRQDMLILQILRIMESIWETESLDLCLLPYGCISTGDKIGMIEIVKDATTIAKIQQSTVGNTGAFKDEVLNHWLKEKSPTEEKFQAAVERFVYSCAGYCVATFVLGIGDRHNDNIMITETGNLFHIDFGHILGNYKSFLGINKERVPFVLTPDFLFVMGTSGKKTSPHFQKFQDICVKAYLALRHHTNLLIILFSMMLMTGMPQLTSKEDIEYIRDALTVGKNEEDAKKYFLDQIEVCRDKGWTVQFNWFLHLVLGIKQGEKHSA
# [15] = biological target: T1, Phosphatidylinositol 4,5-bisphosphate 3-kinase catalytic subunit delta isoform (Homo sapiens, UniProt O00329); experiment: Inhibition of PI3Kdelta (unknown origin) using PIP2 as substrate in presence of ATP incubated for 60 mins by ADP-glo based luminescence assay
# T1 sequence (O00329 whole entry): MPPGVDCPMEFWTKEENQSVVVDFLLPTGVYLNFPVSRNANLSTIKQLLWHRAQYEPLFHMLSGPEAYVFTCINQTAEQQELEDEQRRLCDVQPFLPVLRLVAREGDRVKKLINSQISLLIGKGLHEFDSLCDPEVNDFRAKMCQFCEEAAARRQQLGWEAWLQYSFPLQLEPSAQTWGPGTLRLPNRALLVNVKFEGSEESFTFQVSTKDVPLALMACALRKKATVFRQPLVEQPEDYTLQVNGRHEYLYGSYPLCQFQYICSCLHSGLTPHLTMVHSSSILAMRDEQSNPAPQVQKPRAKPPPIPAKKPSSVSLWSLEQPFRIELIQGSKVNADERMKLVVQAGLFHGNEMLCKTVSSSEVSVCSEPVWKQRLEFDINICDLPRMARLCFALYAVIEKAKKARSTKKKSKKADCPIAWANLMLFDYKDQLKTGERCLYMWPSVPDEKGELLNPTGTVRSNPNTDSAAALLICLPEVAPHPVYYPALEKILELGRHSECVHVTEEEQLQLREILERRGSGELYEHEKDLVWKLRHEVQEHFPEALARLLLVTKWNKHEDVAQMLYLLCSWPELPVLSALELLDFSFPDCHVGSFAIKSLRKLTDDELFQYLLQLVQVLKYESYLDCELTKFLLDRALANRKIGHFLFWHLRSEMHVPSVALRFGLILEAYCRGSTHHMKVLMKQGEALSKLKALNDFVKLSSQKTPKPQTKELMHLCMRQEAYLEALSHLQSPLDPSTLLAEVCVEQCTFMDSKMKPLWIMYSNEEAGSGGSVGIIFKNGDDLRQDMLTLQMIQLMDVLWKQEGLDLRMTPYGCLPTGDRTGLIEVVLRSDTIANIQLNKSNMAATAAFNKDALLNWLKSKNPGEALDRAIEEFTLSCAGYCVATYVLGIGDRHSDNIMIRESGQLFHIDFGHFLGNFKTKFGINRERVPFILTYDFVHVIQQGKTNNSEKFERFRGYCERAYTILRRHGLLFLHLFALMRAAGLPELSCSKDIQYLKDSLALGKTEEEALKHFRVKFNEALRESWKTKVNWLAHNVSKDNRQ
# MDA-MB-231 = experiment: Antiproliferative activity against human MDA-MB-231 cells assessed as reduction in cell viability incubated for 48 hrs by MTT assay; assay type: functional, cell-based; details: MDA-MB-231, 48 h
# HeLa = experiment: Antiproliferative activity against human HeLa cells assessed as reduction in cell viability incubated for 48 hrs by MTT assay; assay type: functional, cell-based
# CNE-2 = experiment: Antiproliferative activity against human CNE-2 cells assessed as reduction in cell viability incubated for 48 hrs by MTT assay; assay type: functional, cell-based; details: CNE-2, 48 h
# HCT-116 [16] = experiment: Antiproliferative activity against human HCT-116 cells assessed as reduction in cell viability incubated for 48 hrs by MTT assay; assay type: functional, cell-based; details: HCT-116, 48 h
# HepG2 = experiment: Antiproliferative activity against human HepG2 cells assessed as reduction in cell viability incubated for 48 hrs by MTT assay; assay type: functional, cell-based; details: HepG2, 48 h
# A-431 = experiment: Antiproliferative activity against human A431 cells harboring wild type EGFR mutant assessed as reduction in cell viability incubated for 72 hrs by celltiter-glo assay; assay type: functional, cell-based; details: A-431, 72 h
# NCI-H1975 = experiment: Antiproliferative activity against human NCI-H1975 cells harboring EGFR L858R/T790M double mutant assessed as reduction in cell viability incubated for 72 hrs by celltiter-glo assay; assay type: functional, cell-based; details: NCI-H1975, 72 h
# BaF3 = experiment: Antiproliferative activity against mouse BaF3 cells harboring EGFR L858R/T790M/C797S mutant assessed as reduction in cell viability incubated for 72 hrs by celltiter-glo assay; assay type: toxicity, cell-based; details: BaF3, 72 h
IC50 [11] [nM],IC50 [12] [nM],IC50 [13] [nM],IC50 [14] [nM],IC50 [15] [nM],IC50 (MDA-MB-231) [nM],IC50 (HeLa) [nM],IC50 (HCT-116 [16]) [nM],IC50 (HepG2) [nM],IC50 (A-431) [nM],IC50 (NCI-H1975) [nM],Compound,IC50 (CNE-2) [nM],IC50 (BaF3) [nM],other results
–,–,–,–,–,–,–,–,–,–,–,CN(C)C1CCN(C(=O)c2ccc(NC(=O)Nc3ccc(-c4nc(N5CCOCC5)nc(N5CCOCC5)n4)cc3)cc2)CC1 [GEDATOLISIB],–,–,inhibition (HCT-116 [1]): Active; Stability [2]: Stable; AUC(0-t) at 72 h [3]: 41800 ng·h/mL; AUC(0-inf) [4]: 42200 ng·h/mL; MRT [5]: 9.1 h; half-life [6]: 15 h; Tmax [7]: 1.8 min; Vdss [8]: 10.3 L/kg; IC50 (Cytochrome P450 1A2): > 50000 nM; IC50 (Cytochrome P450 2C9): > 50000 nM; IC50 (Cytochrome P450 2C19): > 50000 nM; IC50 (Cytochrome P450 2D6): > 50000 nM; Activity (HCT-116 [9]): 800.3 mm3; inhibition in vivo at 20 mg/kg (HCT-116 [10]): 41.2%; Activity (Spleen): Non-Toxic; Activity (Heart): Non-Toxic; Activity (Lung): Non-Toxic; Activity (Kidney): Non-Toxic; Activity (Liver): Non-Toxic; Activity (Mus musculus): Toxic
0.9,2.1,5.1,28,25,940,1900,3660,460,1160,3360,C[C@@H](NC(=O)c1ccc(NC(=O)Nc2ccc(-c3nc(N4CCOCC4)nc(N4CCOCC4)n3)cc2)cc1)C(N)=O,12600,547,–
5.5,2.2,11.9,98.8,16.1,39000,13500,4810,3190,6380,5450,NC(=O)[C@@H]1CC(O)CN1C(=O)c1ccc(NC(=O)Nc2ccc(-c3nc(N4CCOCC4)nc(N4CCOCC4)n3)cc2)cc1 (stereo partly specified),5420,2690,–
